In ChEMBL document CHEMBL6134930, “Discovery of AB801, a Potent and Selective Inhibitor of AXL Receptor Tyrosine Kinase for Use in Cancer Therapy” (J Med Chem, 2025):
Active and inactive are the calls of the source. No cut-off for these calls is given here.

What was measured:
[1] = Half life in human (healthy individuals) at 30 mg, single oral dose; assay type: ADME; conditions: in vivo
786-0 = assay: Anti-tumor activity against human 786-0 cells xenografted in mouse model assessed as reduction in tumor volume in presence of sunitinib at 10 mg/kg, po once daily for 15 days; assay type: functional, organism-based; conditions: time 15.0 day
[2] = Apparent permeability of compound from apical to basolateral side in human Caco-2 cells; assay type: ADME, cell-based; conditions: read-out: permeability
[3] = Metabolic stability in rat hepatocytes assessed as intrinsic clearance measured per 10^6 cells; assay type: ADME, cell-based, Hepatocyte; conditions: read-out: CLH
[4] = AUC (0 to 120 hrs) in human (healthy individuals) at 90 mg, single oral dose; assay type: ADME; conditions: in vivo
[5] = Selectivity ratio, ratio of Ki for HPK1 (unknown origin) to Ki for AXL (unknown origin)
Cytochrome P450 2C19 = Cytochrome P450 2C19 (Homo sapiens, UniProt P33261); assay: Inhibition of CYP2C19 (unknown origin) measured after 30 mins; assay type: ADME
Sequence of Cytochrome P450 2C19 (P33261 whole entry): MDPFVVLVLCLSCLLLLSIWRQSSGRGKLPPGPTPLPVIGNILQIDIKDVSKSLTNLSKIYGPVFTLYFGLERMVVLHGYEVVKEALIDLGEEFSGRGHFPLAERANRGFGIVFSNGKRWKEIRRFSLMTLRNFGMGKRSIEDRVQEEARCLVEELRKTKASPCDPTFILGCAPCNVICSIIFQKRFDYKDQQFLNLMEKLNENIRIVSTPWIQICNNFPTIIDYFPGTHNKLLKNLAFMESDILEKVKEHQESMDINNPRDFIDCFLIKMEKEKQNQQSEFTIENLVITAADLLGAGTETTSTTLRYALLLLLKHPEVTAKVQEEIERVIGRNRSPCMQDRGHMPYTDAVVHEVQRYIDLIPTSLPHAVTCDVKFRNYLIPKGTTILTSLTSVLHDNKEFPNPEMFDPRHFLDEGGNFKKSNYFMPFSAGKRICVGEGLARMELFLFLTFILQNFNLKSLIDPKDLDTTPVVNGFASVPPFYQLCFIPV

[6] = AUC (0 to 24 hrs) in human (healthy individuals) at 30 mg, single oral dose; assay type: ADME; conditions: in vivo
[7] = Clearance in Beagle dog at 0.5 mg/kg, iv measured up to 24 hrs by LC-MS/MS analysis; assay type: ADME, organism-based, Canis lupus familiaris; conditions: in vivo
[8] = AUC (0 to 120 hrs) in human (healthy individuals) at 30 mg, single oral dose; assay type: ADME; conditions: in vivo
[9] = AUC (0 to 24 hrs) in human (healthy individuals) at 10 mg, single oral dose; assay type: ADME; conditions: in vivo
Cytochrome P450 2D6 = Cytochrome P450 2D6 (Homo sapiens, UniProt P10635); assay: Inhibition of CYP2D6 (unknown origin) measured after 30 mins; assay type: ADME
Sequence of Cytochrome P450 2D6 (P10635 whole entry): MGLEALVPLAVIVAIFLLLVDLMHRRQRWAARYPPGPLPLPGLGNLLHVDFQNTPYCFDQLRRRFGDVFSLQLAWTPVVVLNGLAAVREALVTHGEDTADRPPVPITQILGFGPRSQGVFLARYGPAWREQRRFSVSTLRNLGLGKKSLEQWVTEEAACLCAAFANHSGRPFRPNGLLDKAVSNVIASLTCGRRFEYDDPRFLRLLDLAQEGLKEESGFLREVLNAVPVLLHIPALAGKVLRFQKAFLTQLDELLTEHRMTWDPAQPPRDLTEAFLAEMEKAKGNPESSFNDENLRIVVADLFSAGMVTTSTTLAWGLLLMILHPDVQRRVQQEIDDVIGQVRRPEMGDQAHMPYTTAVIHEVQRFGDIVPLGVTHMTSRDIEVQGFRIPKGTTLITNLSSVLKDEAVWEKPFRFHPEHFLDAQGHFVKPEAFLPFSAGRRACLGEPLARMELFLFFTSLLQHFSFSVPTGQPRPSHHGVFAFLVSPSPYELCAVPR

Cytochrome P450 1A2 = biological target: T1, Cytochrome P450 1A2 (Homo sapiens, UniProt P05177); assay: Inhibition of CYP1A2 (unknown origin) measured after 30 mins; assay type: ADME
T1 sequence (P05177 whole entry): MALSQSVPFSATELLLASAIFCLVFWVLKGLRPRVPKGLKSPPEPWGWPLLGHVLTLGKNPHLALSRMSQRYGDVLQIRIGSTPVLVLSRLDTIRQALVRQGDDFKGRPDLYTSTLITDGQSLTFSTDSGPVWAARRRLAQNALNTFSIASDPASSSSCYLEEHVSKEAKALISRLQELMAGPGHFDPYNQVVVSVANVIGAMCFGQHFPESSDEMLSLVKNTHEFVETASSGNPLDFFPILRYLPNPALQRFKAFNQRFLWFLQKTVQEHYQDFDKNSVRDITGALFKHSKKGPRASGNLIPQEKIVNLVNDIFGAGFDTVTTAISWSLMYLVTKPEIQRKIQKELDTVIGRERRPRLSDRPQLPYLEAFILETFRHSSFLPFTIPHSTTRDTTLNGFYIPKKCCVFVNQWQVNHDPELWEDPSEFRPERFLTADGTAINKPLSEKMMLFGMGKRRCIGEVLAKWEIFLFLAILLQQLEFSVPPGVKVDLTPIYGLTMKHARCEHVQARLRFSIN

[10] = AUC (0 to 120 hrs) in human (healthy individuals) at 270 mg, single oral dose; assay type: ADME; conditions: in vivo
[11] = Clearance in Sprague-Dawley rat at 0.5 mg/kg, iv measured up to 24 hrs by LC-MS/MS analysis; assay type: ADME, organism-based; conditions: in vivo
[12] = Toxicity in mouse xenografted with human 786-0 cells assessed as body weight at 30 mg/kg, po once daily for 15 days; assay type: organism-based; conditions: in vivo, 360 h, time 15 day
CYP2C19 = CYP2C19 (Homo sapiens, UniProt P33261); assay: Time dependent inhibition of CYP2C19 (unknown origin) at 30 uM measured after 30 mins relative to control; assay type: ADME; conditions: read-out: TDI
Sequence of CYP2C19 (P33261 whole entry): as the sequence (P33261 whole entry) above

[13] = AUC (0 to 24 hrs) in human (healthy individuals) at 90 mg, single oral dose; assay type: ADME; conditions: in vivo
[14] = Tmax in human (healthy individuals) at 10 mg, single oral dose; assay type: ADME; conditions: in vivo
[15] = Cmax in human (healthy individuals) at 30 mg, single oral dose measured uo to 120 hrs; assay type: ADME; conditions: in vivo
Cytochrome P450 3A4 = Cytochrome P450 3A4 (Homo sapiens, UniProt P08684); assay: Inhibition of CYP3A4 (unknown origin) using midazolam as substrate measured after 30 mins; assay type: ADME
Sequence of Cytochrome P450 3A4 (P08684 whole entry): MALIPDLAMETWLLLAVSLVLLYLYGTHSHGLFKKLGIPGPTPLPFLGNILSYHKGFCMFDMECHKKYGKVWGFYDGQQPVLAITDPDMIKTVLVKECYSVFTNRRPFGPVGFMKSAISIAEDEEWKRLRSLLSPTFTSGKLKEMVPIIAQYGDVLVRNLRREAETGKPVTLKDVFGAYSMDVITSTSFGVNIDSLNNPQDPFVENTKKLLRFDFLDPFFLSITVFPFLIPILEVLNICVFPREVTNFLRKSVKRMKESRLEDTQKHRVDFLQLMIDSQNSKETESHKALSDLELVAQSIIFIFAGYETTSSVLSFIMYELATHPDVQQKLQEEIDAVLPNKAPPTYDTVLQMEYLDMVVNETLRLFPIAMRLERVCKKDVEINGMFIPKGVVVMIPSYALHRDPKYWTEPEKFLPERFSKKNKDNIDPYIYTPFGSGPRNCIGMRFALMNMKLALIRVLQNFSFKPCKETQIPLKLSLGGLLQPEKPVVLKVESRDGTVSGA

[16] = Tmax in human (healthy individuals) at 270 mg, single oral dose; assay type: ADME; conditions: in vivo
CYP2B6 = biological target: T2, CYP2B6 (Homo sapiens, UniProt P20813); assay: Time dependent inhibition of CYP2B6 (unknown origin) at 30 uM measured after 30 mins relative to control; assay type: ADME; conditions: read-out: TDI
T2 sequence (P20813 whole entry): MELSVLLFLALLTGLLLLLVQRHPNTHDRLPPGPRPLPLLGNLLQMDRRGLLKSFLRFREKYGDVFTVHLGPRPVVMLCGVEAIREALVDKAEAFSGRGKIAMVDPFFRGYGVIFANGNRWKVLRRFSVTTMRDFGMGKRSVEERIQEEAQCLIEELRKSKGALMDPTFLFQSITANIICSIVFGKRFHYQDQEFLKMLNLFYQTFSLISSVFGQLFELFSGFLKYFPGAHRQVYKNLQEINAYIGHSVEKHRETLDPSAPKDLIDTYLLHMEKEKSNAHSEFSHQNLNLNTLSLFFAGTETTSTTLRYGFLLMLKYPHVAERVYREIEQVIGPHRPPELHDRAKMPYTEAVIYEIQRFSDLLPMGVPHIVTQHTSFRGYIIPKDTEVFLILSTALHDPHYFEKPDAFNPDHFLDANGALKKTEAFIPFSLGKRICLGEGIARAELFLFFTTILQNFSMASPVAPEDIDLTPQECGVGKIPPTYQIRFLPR

CYP3A4 = CYP3A4 (Homo sapiens, UniProt P08684); assay: Time dependent inhibition of CYP3A4 (unknown origin) using midazolam as substrate at 30 uM measured after 30 mins relative to control; assay type: ADME; conditions: probe midazolam, read-out: TDI
Sequence of CYP3A4 (P08684 whole entry): as the sequence (P08684 whole entry) above

[17] = Tmax in human (healthy individuals) at 90 mg, single oral dose; assay type: ADME; conditions: in vivo
Cytochrome P450 2C8 = biological target: T3, Cytochrome P450 2C8 (Homo sapiens, UniProt P10632); assay: Inhibition of CYP2C8 (unknown origin) measured after 30 mins; assay type: ADME
T3 sequence (P10632 whole entry): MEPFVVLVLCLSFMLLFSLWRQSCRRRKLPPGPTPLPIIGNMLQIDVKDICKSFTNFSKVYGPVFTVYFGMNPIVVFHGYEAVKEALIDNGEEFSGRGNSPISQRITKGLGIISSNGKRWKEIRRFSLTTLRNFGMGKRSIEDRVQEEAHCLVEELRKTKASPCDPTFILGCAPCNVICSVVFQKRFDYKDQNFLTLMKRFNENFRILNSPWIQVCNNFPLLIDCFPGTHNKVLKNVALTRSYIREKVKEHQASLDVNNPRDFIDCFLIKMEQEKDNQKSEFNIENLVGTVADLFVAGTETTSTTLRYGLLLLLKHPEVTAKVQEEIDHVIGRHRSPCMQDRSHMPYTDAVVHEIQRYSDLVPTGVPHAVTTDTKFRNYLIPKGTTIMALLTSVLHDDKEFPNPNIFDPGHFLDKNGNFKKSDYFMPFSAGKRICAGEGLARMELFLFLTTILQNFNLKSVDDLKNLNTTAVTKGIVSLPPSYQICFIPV

[18] = AUCinf in Sprague-Dawley rat at 2 mg/kg, po measured up to 8 hrs by LC-MS/MS analysis; assay type: ADME, organism-based; conditions: in vivo

Cc1cccnc1-c1ccc(-c2n[nH]c3ncc(-c4ccc5c(c4)CC[C@@H](N4C6COCC4C6)CC5)cc23)nc1
half-life [1]: 72 h | Activity (786-0): Active | Papp A→B [2]: 17 nm/s | hepatocyte CLint [3]: 20 µL/min/1e6 cells | AUC(0-t) [4]: 2.09 µg·h/mL | Ratio Ki [5]: 280 | IC50 (Cytochrome P450 2C19): 17 µM | AUC(0-t) [6]: 0.189 µg·h/mL | clearance [7]: 1.5 L/h/kg | AUC(0-t) [8]: 0.614 µg·h/mL | AUC(0-t) [9]: 0.055 µg·h/mL | IC50 (Cytochrome P450 2D6): 11 µM | IC50 (Cytochrome P450 1A2): > 100 µM | AUC(0-t) [10]: 7.49 µg·h/mL | clearance [11]: 0.65 L/h/kg | Activity [12]: Non-toxic | inhibition at 0.5 h, 30 µM (CYP2C19): 4.1% | AUC(0-t) [13]: 0.707 µg·h/mL | Tmax [14]: 6 h | Cmax [15]: 0.012 µg/mL | IC50 (Cytochrome P450 3A4): 17 µM | Tmax [16]: 8 h | inhibition at 0.5 h, 30 µM (CYP2B6): 12% | inhibition at 0.5 h, 30 µM (CYP3A4): 16% | Tmax [17]: 8 h | IC50 (Cytochrome P450 2C8): 17 µM | AUC(0-inf) [18]: 1.8 µg·h/mL
